In US10093660B2, “Sulfoximine substituted quinazolines for pharmaceutical compositions” (EVOTEC INTERNATIONAL GMBH, priority 2013, dated 2018):
pIC50: −log10 of the molar value.

Experiments:
MNK2a = MNK2a (Homo sapiens (Human), UniProt Q9HBH9); experiment: MNK2a in vitro kinase assay (Assay 2), ADP-Glo; type: biochemical; conditions: assay 2; read-out: MNK2 IC50
Source text: B. MNK2a In Vitro Kinase Assay (Assay 2)

MNK1a = MNK1a (Homo sapiens (Human), UniProt Q9BUB5); experiment: MNK1 in vitro kinase assay (Assay 3), Z'-LYTE; type: biochemical; conditions: for inhibition at 1 µM: compound concentration of 1 μM, read-out: MNK1 % INH
Source text: C. MNK1 In Vitro Kinase Assay (Assay 3)
MNK1 Data can be obtained from the MNK1 Z′-LYTE® assay. The MNK1 Z′-LYTE® screening protocol and assay conditions are also described on www.invitrogen.com.
The assay is described as follows:
The Z′-LYTE® biochemical assay employs a fluorescence-based, coupled-enzyme format and is based on the differential sensitivity of phosphorylated and non-phosphorylated peptides to proteolytic cleavage. The peptide substrate is labeled with two fluorophores—one at each end—that make up a FRET pair.
In the primary reaction, the kinase transfers the gamma-phosphate of ATP to a single tyrosine, serine or threonine residue in a synthetic FRET-peptide. In the secondary reaction, a site-specific protease recognizes and cleaves non-phosphorylated FRET-peptides. Phosphorylation of FRET-peptides suppresses cleavage by the Development Reagent. Cleavage disrupts FRET between the donor (i.e., coumarin) and acceptor (i.e., fluorescein) fluorophores on the FRET-peptide, whereas uncleaved, phosphorylated FRET-peptides maintain FRET. A ratiometric method, which calculates the ratio (the Emission Ratio) of donor emission to acceptor emission after excitation of the donor fluorophore at 400 nm, is used to quantitate reaction progress, as shown in the equation below.
The 2×MKNK1 (MNK1) mixture is prepared in 50 mM HEPES pH 7.5, 0.01% BRIJ-35, 10 mM MgCl2, 4 mM MnCl2, 1 mM EGTA, 2 mM DTT.
The Test Compounds are screened in 1% DMSO (final) in the well.
All Peptide/Kinase Mixtures are diluted to a 2× working concentration in the MNK1 Kinase Buffer.
All ATP Solutions are diluted to a 4× working concentration in Kinase Buffer (50 mM HEPES pH 7.5, 0.01% BRIJ-35, 10 mM MgCl2, 1 mM EGTA).
Development Reagent Solution:
The Development Reagent is diluted in Development Buffer
1. 2.5 μL—4× Test Compound
2. 5 μL—2× Peptide/Kinase Mixture
5. 60-minute Kinase Reaction incubation at room temperature
6. 5 μL—Development Reagent Solution
8. 60-minute Development Reaction incubation at room temperature
9. Read on fluorescence plate reader and analyze the data
Control C0%=Average Coumarin emission signal of the 0% Phos. Control F100%=Average Fluorescein emission signal of the 100% Phos. Control F0%=Average Fluorescein emission signal of the 0% Phos. Control Graphing Software
SelectScreen® Kinase Profiling Service uses XLfit from IDBS. […] The activity of MNK proteins can be assayed also by other in vitro kinase assay formats. […] In general, MNK kinase assays can be performed such that a MNK substrate such as a protein or a peptide, which may or may not include modifications as further described below, or others are phosphorylated by MNK proteins having enzymatic activity in vitro. The activity of a candidate agent can then be determined via its ability to decrease the enzymatic activity of the MNK protein. The kinase activity may be detected by change of the chemical, physical or immunological properties of the substrate due to phosphorylation.

MNK1a, sequence (Q9BUB5 other isoform, or with tags, fused parts or gaps): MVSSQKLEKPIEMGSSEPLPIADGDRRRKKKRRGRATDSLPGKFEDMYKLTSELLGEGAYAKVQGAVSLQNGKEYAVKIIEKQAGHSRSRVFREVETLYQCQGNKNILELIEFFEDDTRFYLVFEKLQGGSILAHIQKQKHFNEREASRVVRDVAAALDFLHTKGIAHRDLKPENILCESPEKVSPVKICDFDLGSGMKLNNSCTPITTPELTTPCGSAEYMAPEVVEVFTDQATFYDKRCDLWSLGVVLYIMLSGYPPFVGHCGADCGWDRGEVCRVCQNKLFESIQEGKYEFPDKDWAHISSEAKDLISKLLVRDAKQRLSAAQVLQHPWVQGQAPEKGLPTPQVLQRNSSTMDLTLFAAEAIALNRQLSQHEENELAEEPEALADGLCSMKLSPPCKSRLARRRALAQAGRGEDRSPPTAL
MNK2a, sequence (Q9HBH9 whole entry): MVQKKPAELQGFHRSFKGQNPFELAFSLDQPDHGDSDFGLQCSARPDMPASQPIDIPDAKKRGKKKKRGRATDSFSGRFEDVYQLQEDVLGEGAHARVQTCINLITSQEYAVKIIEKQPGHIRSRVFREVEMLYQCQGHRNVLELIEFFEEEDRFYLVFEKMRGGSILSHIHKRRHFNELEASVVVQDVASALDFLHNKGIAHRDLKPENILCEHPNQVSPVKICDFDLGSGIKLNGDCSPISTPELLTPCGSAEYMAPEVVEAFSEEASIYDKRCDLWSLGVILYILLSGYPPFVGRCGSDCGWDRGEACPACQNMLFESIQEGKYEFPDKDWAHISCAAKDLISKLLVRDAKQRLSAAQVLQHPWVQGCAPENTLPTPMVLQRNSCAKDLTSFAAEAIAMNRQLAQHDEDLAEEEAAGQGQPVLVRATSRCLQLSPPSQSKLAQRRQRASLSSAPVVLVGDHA

Row | SMILES | pIC50 (MNK2a) | inhibition at 1 µM (MNK1a) | pIC50 (MNK1a)
1 | CO[C@@H]1CCC(Oc2cc(F)ccc2Nc2ncnc3cc(N=S4(=O)CCC4)cc(C)c23)CO1 (mixture of isomers) [Example 2.56] | 8.70 | 95% | 
2 | CO[C@@H]1COC[C@@H]1Oc1cc(F)ccc1Nc1ncnc2cc(N=S(C)(C)=O)cc(F)c12 (racemic) [Example 2.57] | 8.22 | 82% | 
3 | Cc1cc(N=S(C)(=O)C2CCOCC2)cc2ncnc(Nc3ccc(F)cc3O[C@@H]3COC[C@@H]3O)c12 (mixture of isomers) [Example 2.65] | 8.00 | 100% | 
4 | Cc1cc(N=S(C)(=O)C(C)(C)C)cc2ncnc(Nc3ccc(F)cc3O[C@@H]3COC[C@@H]3O)c12 (mixture of isomers) [Example 2.68] | 7.96 | 94% | 
5 | Cc1cc(N=S(C)(=O)c2cccnc2)cc2ncnc(Nc3ccc(F)cc3O[C@@H]3COC[C@@H]3O)c12 (mixture of isomers) [Example 2.70] | 8.00 | 92% | 
6 | Cc1cc(N=S(C)(=O)C(C)C)cc2ncnc(Nc3ccc(F)cc3O[C@@H]3COC[C@@H]3O)c12 (mixture of isomers) [Example 2.71] | 8.22 | 94% | 
7 | Cc1cc(N=S2(=O)CCC(O)CC2)cc2ncnc(Nc3ccc(F)cc3O[C@@H]3COC[C@@H]3O)c12 (mixture of isomers) [Example 2.76] | 8.15 | 96% | 
8 | Cc1cc(N=S2(=O)CCC(C)C2)cc2ncnc(Nc3ccc(F)cc3O[C@@H]3COC[C@@H]3O)c12 (mixture of isomers) [Example 2.83] | 8.40 | 97% | 
9 | CC(=O)O[C@@H]1COC[C@@H]1Oc1cc(F)ccc1Nc1ncnc2cc(N=S(C)(C)=O)cc(C)c12 (racemic) [Example 6.9] | 8.15 | 90% | 
10 | COCCO[C@@H]1COC[C@@H]1Oc1cc(F)ccc1Nc1ncnc2cc(N=S(C)(C)=O)cc(C)c12 (racemic) [Example 7.1] | 7.35 | 62% | 
11 | Cc1cc(N=S(C)(C)=O)cc2ncnc(Nc3ccc(F)cc3O[C@H]3COC[C@H]3OCC3CC3)c12 (racemic) [Example 7.2] | 8.22 | 94% | 
12 | Cc1cc(N=S(C)(C)=O)cc2ncnc(Nc3ccc(F)cc3O[C@H]3COC[C@H]3OC3COC3)c12 (racemic) [Example 7.3] | 8.15 | 93% | 
13 | COc1cc(N=S2(=O)CCC2)cc2ncnc(Nc3cccnc3O[C@H]3COC[C@H]3O)c12 (racemic) [Example 8.4] | 7.96 |  | 6.98
14 | O=S1(=Nc2cc(Cl)c3c(Nc4ccc(F)cc4O[C@@H]4COC[C@@H]4O)ncnc3c2)CCC1 (single isomer, unassigned) [Example 1.34] | 8.52 | 97% | 
15 | O=S1(=Nc2cc(Cl)c3c(Nc4ccc(F)cc4O[C@H]4COC[C@H]4O)ncnc3c2)CCC1 (single isomer, unassigned) [Example 1.35] | 9.00 |  | 7.60
16 | Cc1cc(N=S2(=O)CCCC2)cc2ncnc(Nc3ccc(F)cc3O[C@H]3COC[C@H]3C#N)c12 [Example 1.1] | 8.05 |  | 6.98
17 | Cc1cc(N=S(C)(C)=O)cc2ncnc(Nc3ccc(F)cc3O[C@H]3COC[C@H]3C#N)c12 [Example 1.2] | 7.72 |  | 6.42
18 | O=S1(=Nc2cc(Cl)c3c(Nc4ccc(F)cc4O[C@H]4COC[C@@H]4O)ncnc3c2)CCC1 [Example 1.7] | 8.70 |  | 7.74
19 | O=S1(=Nc2cc(Cl)c3c(Nc4ccc(F)cc4O[C@H]4COC[C@@H]4O)ncnc3c2)CCCC1 [Example 1.9] | 8.70 | 98% | 7.55
20 | CS(C)(=O)=Nc1cc(OC(F)F)c2c(Nc3ccc(F)cc3O[C@H]3COC[C@@H]3O)ncnc2c1 [Example 1.11] | 7.49 | 64% | 
21 | CS(C)(=O)=Nc1cc(C(F)(F)F)c2c(Nc3ccc(F)cc3O[C@H]3COC[C@@H]3O)ncnc2c1 [Example 1.12] | 8.40 | 88% | 
22 | O=S1(=Nc2cc(Cl)c3c(Nc4cccnc4O[C@H]4COC[C@@H]4O)ncnc3c2)CCC1 [Example 1.13] | 8.40 | 100% | 

Second part, the molecule after the results:

Row | pIC50 (MNK2a) | inhibition at 1 µM (MNK1a) | pIC50 (MNK1a) | SMILES
23 | 7.68 | 97% |  | COc1cc(N=S2(=O)CCCC2)cc2ncnc(Nc3cccnc3O[C@H]3COC[C@H]3O)c12 (racemic) [Example 8.5]
24 | 8.70 | 96% |  | COc1cc(N=S(C)(C)=O)cc2ncnc(Nc3ccc(F)cc3O[C@H]3COC[C@H]3OC)c12 (racemic) [Example 9.1]
25 | 8.70 | 94% |  | COc1cc(N=S2(=O)CCCC2)cc2ncnc(Nc3ccc(F)cc3O[C@H]3COC[C@H]3OC)c12 (racemic) [Example 9.2]
26 | 7.59 | 90% |  | COc1cc(N=S(C)(C)=O)cc2ncnc(Nc3ccc(F)cc3O[C@H]3COC[C@H]3O)c12 (racemic) [Example 9.3]
27 | 8.22 | 99% |  | COc1cc(N=S2(=O)CCCC2)cc2ncnc(Nc3ccc(F)cc3O[C@H]3COC[C@H]3O)c12 (racemic) [Example 9.13]
28 | 8.15 | 98% |  | COc1cc(N=S2(=O)CCC2)cc2ncnc(Nc3ccc(F)cc3O[C@H]3COC[C@H]3O)c12 (racemic) [Example 9.16]
29 | 9.00 |  | 7.26 | Cc1cc(N=S2(=O)CCCC2)cc2ncnc(Nc3ccc(F)cc3O[C@H]3COC[C@H]3OCCF)c12 (racemic) [Example 10.1]
30 | 8.70 | 93% |  | Cc1cc(N=S(C)(C)=O)cc2ncnc(Nc3ccc(F)cc3O[C@H]3COC[C@H]3OCCF)c12 (racemic) [Example 10.2]
31 | 8.52 |  | 7.39 | Cc1cc(N=S(C)(C)=O)cc2ncnc(Nc3ccc(F)cc3O[C@H]3COC[C@H]3OCC(F)F)c12 (racemic) [Example 10.3]
32 | 8.52 | 104% |  | Cc1cc(N=S2(=O)CCCC2)cc2ncnc(Nc3ccc(F)cc3O[C@H]3COC[C@H]3OCC(F)F)c12 (racemic) [Example 10.4]
33 | 8.22 | 96% |  | CO[C@@H]1C=C[C@@H](Oc2cc(F)ccc2Nc2ncnc3cc(N=S(C)(C)=O)cc(C)c23)CO1 (racemic) [Example 13.1]
34 | 7.89 | 69% |  | CO[C@@H]1COC[C@H]1Oc1cc(F)ccc1Nc1ncnc2cc(N=S(C)(C)=O)cc(C)c12 (racemic) [Example 13.2]
35 | 9.00 | 97% |  | CO[C@H]1COC[C@H]1Oc1ncccc1Nc1ncnc2cc(N=S3(=O)CCCC3)cc(C)c12 (single isomer, unassigned) [Example 14.1]
36 | 8.00 | 86% |  | CO[C@@H]1COC[C@@H]1Oc1ncccc1Nc1ncnc2cc(N=S3(=O)CCCC3)cc(C)c12 (single isomer, unassigned) [Example 14.2]
37 | 8.52 | 99% |  | Cc1cc(N=S2(=O)CCCC2)cc2ncnc(Nc3ccc(F)cc3O[C@@H]3COC[C@@H]3O)c12 (single isomer, unassigned) [Example 14.5]
38 | 8.70 | 101% |  | Cc1cc(N=S2(=O)CCCC2)cc2ncnc(Nc3ccc(F)cc3O[C@H]3COC[C@H]3O)c12 (single isomer, unassigned) [Example 14.6]
39 | 8.52 | 100% |  | O=S1(=Nc2cc(Cl)c3c(Nc4ccc(F)cc4O[C@@H]4COC[C@@H]4O)ncnc3c2)CCCC1 (single isomer, unassigned) [Example 14.9]
40 | 8.70 | 101% |  | O=S1(=Nc2cc(Cl)c3c(Nc4ccc(F)cc4O[C@H]4COC[C@H]4O)ncnc3c2)CCCC1 (single isomer, unassigned) [Example 14.10]
41 | 8.40 | 96% |  | CC[S@](C)(=O)=Nc1cc(C)c2c(Nc3ccc(F)cc3O[C@H]3COC[C@@H]3O)ncnc2c1 (single isomer, unassigned) [Example 14.11]
42 | 7.82 | 86% |  | CC[S@@](C)(=O)=Nc1cc(C)c2c(Nc3ccc(F)cc3O[C@H]3COC[C@@H]3O)ncnc2c1 (single isomer, unassigned) [Example 14.12]
